The values below are quoted from earlier work in PMC11696576, “Next generation thiazolyl ketone inhibitors of cytosolic phospholipase A2 α for targeted cancer therapy” (Nature Communications, 2025).

Where only a bound is given, the exact number is not on record here.

In series [1] the target is T1, recombinant human cPLA2α (Homo sapiens, UniProt P47712).
T1 sequence (P47712 1-749): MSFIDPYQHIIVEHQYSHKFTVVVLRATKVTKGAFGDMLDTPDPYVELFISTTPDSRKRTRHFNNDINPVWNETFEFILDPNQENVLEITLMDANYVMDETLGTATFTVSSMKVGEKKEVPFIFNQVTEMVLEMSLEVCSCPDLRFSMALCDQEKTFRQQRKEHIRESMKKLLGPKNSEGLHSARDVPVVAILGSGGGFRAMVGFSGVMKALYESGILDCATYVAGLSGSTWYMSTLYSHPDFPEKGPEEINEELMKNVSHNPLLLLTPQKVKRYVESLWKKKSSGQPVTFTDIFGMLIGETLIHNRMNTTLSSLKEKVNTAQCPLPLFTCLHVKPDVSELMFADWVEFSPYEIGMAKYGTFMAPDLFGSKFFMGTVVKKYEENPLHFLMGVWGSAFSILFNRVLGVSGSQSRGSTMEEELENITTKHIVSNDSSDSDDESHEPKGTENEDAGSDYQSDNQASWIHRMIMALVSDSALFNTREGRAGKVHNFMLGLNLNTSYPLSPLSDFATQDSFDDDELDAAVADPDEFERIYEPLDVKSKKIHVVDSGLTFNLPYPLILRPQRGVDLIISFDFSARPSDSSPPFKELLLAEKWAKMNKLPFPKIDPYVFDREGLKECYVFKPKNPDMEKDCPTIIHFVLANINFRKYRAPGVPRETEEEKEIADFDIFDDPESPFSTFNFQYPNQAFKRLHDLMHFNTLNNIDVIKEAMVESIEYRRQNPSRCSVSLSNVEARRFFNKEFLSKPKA
The arrangement: method as in PMID 25152071. Particulars: previously published data ref 19, cited from earlier work.

Series [2] concerns the target T2, human calcium-independent GVIA iPLA2 (Homo sapiens, UniProt O60733).
T2 sequence (O60733 1-806): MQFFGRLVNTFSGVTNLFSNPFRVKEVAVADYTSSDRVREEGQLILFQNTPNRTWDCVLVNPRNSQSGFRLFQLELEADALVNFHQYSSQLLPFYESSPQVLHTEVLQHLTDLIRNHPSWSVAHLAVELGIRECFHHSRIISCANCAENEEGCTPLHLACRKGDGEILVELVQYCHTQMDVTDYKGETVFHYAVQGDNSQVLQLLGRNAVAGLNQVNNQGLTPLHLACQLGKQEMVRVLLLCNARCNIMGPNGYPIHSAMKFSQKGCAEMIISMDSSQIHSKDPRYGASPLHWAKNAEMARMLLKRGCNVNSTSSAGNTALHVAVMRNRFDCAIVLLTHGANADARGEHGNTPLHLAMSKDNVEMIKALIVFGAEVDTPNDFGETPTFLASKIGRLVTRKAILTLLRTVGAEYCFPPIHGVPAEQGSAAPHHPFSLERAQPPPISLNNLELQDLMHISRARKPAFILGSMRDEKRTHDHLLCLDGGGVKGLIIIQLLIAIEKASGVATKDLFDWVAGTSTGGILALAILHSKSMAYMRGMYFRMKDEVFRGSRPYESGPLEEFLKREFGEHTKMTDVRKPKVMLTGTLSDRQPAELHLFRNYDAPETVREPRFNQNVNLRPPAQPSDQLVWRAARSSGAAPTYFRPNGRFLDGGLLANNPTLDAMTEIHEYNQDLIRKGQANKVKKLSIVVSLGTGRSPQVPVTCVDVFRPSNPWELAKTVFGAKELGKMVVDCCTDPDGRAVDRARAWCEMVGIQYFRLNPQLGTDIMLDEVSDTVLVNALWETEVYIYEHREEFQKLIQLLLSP
The arrangement: method as in PMID 25152071. The settings on record: 0.091 mole fraction; previously published data ref 19; cited from earlier work.

Take `CCCCCCCCc1ccc(OCC(=O)c2nc(C(=O)OC)cs2)cc1` [GK470]: in series [1] (0.091 mole fraction), the “cPLA2α % Inhib” value is given as over 90%. In series [1] (XI(50) ± stdev), the “cPLA2α XI(50)” value was 0.011 ± 0.005 mole fraction. Besides, the “GVIA iPLA2 % Inhib” value in series [2] is recorded as 86%.
